Experimental data as given in paper PMC9944328 (Nature Communications, 2023).
Values joined by “and” are separate entries in the source; they are usually repeats but may differ in a detail not shown here. Equal entries are not always repeated.

Molecular target: SSTR2 (Homo sapiens, UniProt P30874)
Assay: NanoBiT β-arrestin 1 recruitment assay, HEK293 (SSTR2 wild-type);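 on Bottom (best-fit): percent of maximal wild-type response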;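 on Bottom: percent of maximal wild-type response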;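 on Span (best-fit value): percent of maximal wild-type response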;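 on Span (best-fit): percent of maximal wild-type response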;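 on Span: percent of maximal wild-type response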;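 on Top (best-fit value): percent of maximal wild-type response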;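 on Top (best-fit): percent of maximal wild-type response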;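 on Top: percent of maximal wild-type response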
Type: cell-based
Set-up: Human full-length SSTR wild-type and mutant vectors were C-terminally fused; expressed in transfected cells; host or cells: HEK293; Best-fit values Bottom / Best-fit values Top / Best-fit values Span / Best-fit Bottom / Best-fit Top / Best-fit Span: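 percent of maximal wild-type response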
Settings: for Span (best-fit value) / Top (best-fit value): β-arrestin1 recruitment
Protocol: The NanoBiT β-arrestin 1 recruitment assays were carried out according to the method described previously. […] Human full-length SSTR wild-type and mutant vectors were C-terminally fused with a 15-amino acid flexible linker and the small fragment (SmBiT). HEK293 cells were seeded into six-well microplates at a density of 1.0 × 10^6 cells/well and cultured for 24 h at 37 °C with 5% CO2. After that, cells were co-transfected with pcDNA3.1+ vectors encoding SSTR wild-type or mutants and human β-arrestin 1. After transfecting for 24 h, the transfected cells were suspended and seeded into white 96-well plates, and then cultured at 37 °C overnight. After that the medium in each well was exchanged for 90 μl of 0.01% bovine serum albumin containing 20 μl of 50 μM coelenterazine h (Carbosynth) diluted in the HBSS assay buffer and incubated for 40 min at room temperature. Then, ligands diluted in the assay buffer was added to each well and the luminescence intensity was measured using the Synergy H1 microplate reader and detected at room temperature in a time period. All data presented are means of at least three independent experiments.

[1] = D122A set WT-3 = Q126A/Y205A set WT-2 = F208A set WT-3
[2] = F127A set WT-1 = I130A set WT-2
[3] = F127A set WT-3 = I130A set WT-1
[4] = Q126A/I130A set WT-3 = F127A set WT-2
[5] = SSTR2 WT-1 (run 1 of WT in the mutant's section)
[6] = SSTR2 WT-2 (run 2 of WT in the mutant's section)
[7] = SSTR2 WT-3 (run 3 of WT in the mutant's section)
[8] = best-fit value, WT-1 (run 1, WT of each mutant's batch)
[9] = best-fit value, WT-2 (run 2, WT of each mutant's batch)
[10] = best-fit value, WT-3 (run 3, WT of each mutant's batch)

Chain of SSTR2 (P30874 whole entry): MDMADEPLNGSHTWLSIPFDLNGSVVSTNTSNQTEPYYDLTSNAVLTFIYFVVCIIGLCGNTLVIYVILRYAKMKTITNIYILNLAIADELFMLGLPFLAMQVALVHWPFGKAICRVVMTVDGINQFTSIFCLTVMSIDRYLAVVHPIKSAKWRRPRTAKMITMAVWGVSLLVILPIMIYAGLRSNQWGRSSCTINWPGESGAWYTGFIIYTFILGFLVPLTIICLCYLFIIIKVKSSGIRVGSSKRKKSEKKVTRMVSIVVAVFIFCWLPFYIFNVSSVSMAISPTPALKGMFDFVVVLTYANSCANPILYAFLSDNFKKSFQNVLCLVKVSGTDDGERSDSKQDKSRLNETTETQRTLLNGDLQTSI
Chain of SSTR2 (P49407 whole entry partner): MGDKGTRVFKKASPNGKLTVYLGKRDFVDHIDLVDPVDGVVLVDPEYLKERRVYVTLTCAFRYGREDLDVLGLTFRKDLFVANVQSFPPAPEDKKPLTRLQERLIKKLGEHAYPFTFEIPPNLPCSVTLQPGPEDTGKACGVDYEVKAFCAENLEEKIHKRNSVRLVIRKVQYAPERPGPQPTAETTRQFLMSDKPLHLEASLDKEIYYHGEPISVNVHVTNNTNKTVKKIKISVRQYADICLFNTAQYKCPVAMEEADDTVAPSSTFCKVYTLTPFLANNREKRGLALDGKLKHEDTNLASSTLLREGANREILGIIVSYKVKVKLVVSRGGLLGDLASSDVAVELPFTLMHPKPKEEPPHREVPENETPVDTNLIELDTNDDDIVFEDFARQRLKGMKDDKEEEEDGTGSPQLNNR

## C[C@@H](O)[C@@H]1NC(=O)[C@H](CCCCN)NC(=O)[C@@H](Cc2c[nH]c3ccccc23)NC(=O)[C@H](Cc2ccccc2)NC(=O)[C@@H](NC(=O)[C@H](N)Cc2ccccc2)CSSC[C@@H](C(=O)N[C@H](CO)[C@@H](C)O)NC1=O [octreotide]
D122A set WT-1
  Bottom (best-fit): 12.18
  Span (best-fit): 93.68
  Top (best-fit): 105.9
D122A set WT-2
  Bottom (best-fit): 4.265
  Span (best-fit): 83.04
  Top (best-fit): 87.31
[1]
  Bottom (best-fit): -0.5169
  Span (best-fit): 99.09
  Top (best-fit): 98.58
[2]
  Bottom (best-fit): -0.5804
  Span (best-fit): 101.3
  Top (best-fit): 100.7
[3]
  Bottom (best-fit): -0.2332
  Span (best-fit): 101
  Top (best-fit): 100.8
F208A set WT-1
  Bottom (best-fit): -0.7342
  Span (best-fit): 99.34
  Top (best-fit): 98.6
F208A set WT-2
  Bottom (best-fit): -1.061
  Span (best-fit): 99.77
  Top (best-fit): 98.71
HEK293
  Emax: 100%
Q126A set WT-1
  Bottom (best-fit): -2.277
  Span (best-fit): 105
  Top (best-fit): 102.7
[4]
  Bottom (best-fit): 0.158
  Span (best-fit): 100.8
  Top (best-fit): 100.9
[5]
  Span (best-fit value): 93.68 and 99.09 and 83.04 and 90.27 and 99.77
  Top (best-fit value): 105.9 and 98.58 and 87.31 and 89.81 and 98.2
[6]
  Span (best-fit value): 83.04 and 105 and 80.44 and 93.46 and 96.97
  Top (best-fit value): 87.31 and 102.7 and 85.95 and 93.4 and 96.99
[7]
  Span (best-fit value): 99.09 and 101.1 and 95.18 and 96.4
  Top (best-fit value): 98.58 and 97.65 and 95.41 and 96.36
WT-1 (F265A set)
  Best-fit values Bottom: 0.158
  Best-fit values Span: 100.8
  Best-fit values Top: 100.9
WT-1 (F272A set)
  Best-fit values Bottom: 4.265
  Best-fit values Span: 83.04
  Best-fit values Top: 87.31
WT-1 (K291A set)
  Best-fit values Bottom: 12.18
WT-1 (N276A set)
  Best-fit values Bottom: 12.18
  Best-fit values Span: 93.68
  Best-fit values Top: 105.9
WT-1 (P220A set)
  Best-fit values Bottom: 1.374
  Best-fit values Span: 94.44
  Best-fit values Top: 95.82
WT-1 (W269A set)
  Best-fit values Bottom: -1.494
  Best-fit values Span: 99.94
  Best-fit values Top: 98.45
WT-2 (F265A set)
  Best-fit values Bottom: -0.2332
  Best-fit values Span: 101
  Best-fit values Top: 100.8
WT-2 (F272A set)
  Best-fit values Bottom: 12.18
  Best-fit values Span: 93.68
  Best-fit values Top: 105.9
WT-2 (K291A set)
  Best-fit values Bottom: 4.265
WT-2 (N276A set)
  Best-fit values Bottom: 4.265
  Best-fit values Span: 83.04
  Best-fit values Top: 87.31
WT-2 (P220A set)
  Best-fit values Bottom: -0.5804
  Best-fit values Span: 101.3
  Best-fit values Top: 100.7
WT-2 (W269A set)
  Best-fit values Bottom: 12.18
  Best-fit values Span: 93.68
  Best-fit values Top: 105.9
WT-3 (F265A set)
  Best-fit values Bottom: -0.5804
  Best-fit values Span: 101.3
  Best-fit values Top: 100.7
WT-3 (F272A set)
  Best-fit values Bottom: -0.5169
  Best-fit values Span: 99.09
  Best-fit values Top: 98.58
WT-3 (K291A set)
  Best-fit values Bottom: -0.5169
WT-3 (N276A set)
  Best-fit values Bottom: -0.5169
  Best-fit values Span: 99.09
  Best-fit values Top: 98.58
WT-3 (P220A set)
  Best-fit values Bottom: -0.2332
  Best-fit values Span: 101
  Best-fit values Top: 100.8
WT-3 (W269A set)
  Best-fit values Bottom: 6.264
  Best-fit values Span: 85.81
  Best-fit values Top: 92.07
Y205A set WT-1
  Bottom (best-fit): -3.442
  Span (best-fit): 101.1
  Top (best-fit): 97.65
Y205A set WT-3
  Bottom (best-fit): 2.142
  Span (best-fit): 104.5
  Top (best-fit): 106.6
[8]
  Span: 99.09 and 101 and 68.4
  Top: 98.58 and 100.8 and 104.3
[9]
  Span: 99.09 and 99.34 and 102.9 and 105
  Top: 98.58 and 98.6 and 97.73 and 102.7
[10]
  Span: 99.09 and 99.77 and 100.8 and 101.1
  Top: 98.58 and 98.71 and 100.9 and 97.65
best-fit, WT-1 (I284A batch)
  Bottom: 12.18
  Span: 93.68
  Top: 105.9
best-fit, WT-1 (P286A batch)
  Bottom: 5.515
  Span: 80.44
  Top: 85.95
best-fit, WT-1 (S285A batch)
  Bottom: 6.264
  Span: 85.81
  Top: 92.07
best-fit, WT-1 (T194A batch)
  Bottom: -0.5169
  Top: 98.58
best-fit, WT-1 (T287A batch)
  Bottom: 4.265
  Span: 83.04
  Top: 87.31
best-fit, WT-1 (W188A batch)
  Bottom: 6.264
  Span: 85.81
  Top: 92.07
best-fit, WT-2 (I284A batch)
  Bottom: -1.639
  Span: 102.1
  Top: 100.5
best-fit, WT-2 (P286A batch)
  Bottom: 4.265
  Span: 83.04
  Top: 87.31
best-fit, WT-2 (S285A batch)
  Bottom: 12.18
  Span: 93.68
  Top: 105.9
best-fit, WT-2 (T194A batch)
  Bottom: -0.7342
  Top: 98.6
best-fit, WT-2 (T287A batch)
  Bottom: 5.515
  Span: 80.44
  Top: 85.95
best-fit, WT-2 (W188A batch)
  Bottom: -0.5169
  Span: 99.09
  Top: 98.58
best-fit, WT-3 (I284A batch)
  Bottom: 6.264
  Span: 85.81
  Top: 92.07
best-fit, WT-3 (P286A batch)
  Bottom: 4.265
  Span: 83.04
  Top: 87.31
best-fit, WT-3 (S285A batch)
  Bottom: 4.265
  Span: 83.04
  Top: 87.31
best-fit, WT-3 (T194A batch)
  Bottom: -1.061
  Top: 98.71
best-fit, WT-3 (T287A batch)
  Bottom: -0.5169
  Span: 99.09
  Top: 98.58
best-fit, WT-3 (W188A batch)
  Bottom: 12.18
  Span: 93.68
  Top: 105.9
